# Data: patent US20060258681A1, “3-Z-[1-(4-(N-((4-Methyl-piperazin-1-yl)-methylcarbonyl)-N-methyl-amino)-anilino)-1-phenyl-methylene]-6-methoxycarbonyl-2-indolinone-monoethanesulphonate and the use thereof as a pharmaceutical composition” (priority 2002, published 2006)
# How the values were obtained:
# PDGFR-alpha = PDGFR-alpha (Homo sapiens, UniProt P16234); assay: standard known kinase inhibition assay, PDGFR-alpha; assay type: biochemical
# Excerpt: (§1) Experimental studies have shown that a metabolite of the compound 3-Z-[1-(4-(N-((4-methyl-piperazin-1-yl)-methylcarbonyl)-N-methyl-amino)-anilino)-1-phenyl-methylene]-6-methoxycarbonyl-2-indolinone-monoethanesulphonate is the de-esterified 3-Z-[1-(4-(N-((4-methyl-piperazin-1-yl)-carbonyl)-N-methyl-amino)-anilino)-1-phenyl-methylene]-6-carboxy-2-indolinone. The in-vitro inhibitory activity of this metabolite on several kinases has been evaluated, using standard known kinase inhibition assays as well as a standard known cellular proliferation inhibition assay (inhibition of the proliferation of Human Umbilical Cord Endothelial Cells stimulated by the VEGF, the so-called “HUVEC cellular assay”). These experimental results have shown that this metabolite inhibits several kinases, such as VEGFR-2, VEGFR-3, Her-2, FGFR-1, PDGFR-alpha or InsR, as well as the proliferation of HUVEC VEGF stimulated cells.
# InsR = InsR (Homo sapiens, UniProt P06213); assay: standard known kinase inhibition assay, InsR; assay type: biochemical
# Excerpt: as §1
# VEGFR-2 = VEGFR-2 (Homo sapiens, UniProt P35968); assay: standard known kinase inhibition assay, VEGFR-2; assay type: biochemical
# Excerpt: as §1
# VEGFR-3 = VEGFR-3 (Homo sapiens, UniProt P35916); assay: standard known kinase inhibition assay, VEGFR-3; assay type: biochemical
# Excerpt: as §1
# Her-2 = Her-2 (Homo sapiens, UniProt P04626); assay: standard known kinase inhibition assay, Her-2; assay type: biochemical
# Excerpt: as §1
# [1] = system: Human Umbilical Cord Endothelial Cells stimulated by the VEGF; assay: HUVEC cellular assay (cellular proliferation inhibition); assay type: cell-based
# Excerpt: as §1
# FGFR-1 = FGFR-1 (Homo sapiens, UniProt P11362); assay: standard known kinase inhibition assay, FGFR-1; assay type: biochemical
# Excerpt: as §1
# [2] = solubility in physiologically acceptable solvents; assay type: physicochemical
# hygroscopicity = assay type: physicochemical
# [3] = amorphisation during grinding and compression; assay type: physicochemical
# Sequence of Her-2 (P04626 23-1255, species assumed): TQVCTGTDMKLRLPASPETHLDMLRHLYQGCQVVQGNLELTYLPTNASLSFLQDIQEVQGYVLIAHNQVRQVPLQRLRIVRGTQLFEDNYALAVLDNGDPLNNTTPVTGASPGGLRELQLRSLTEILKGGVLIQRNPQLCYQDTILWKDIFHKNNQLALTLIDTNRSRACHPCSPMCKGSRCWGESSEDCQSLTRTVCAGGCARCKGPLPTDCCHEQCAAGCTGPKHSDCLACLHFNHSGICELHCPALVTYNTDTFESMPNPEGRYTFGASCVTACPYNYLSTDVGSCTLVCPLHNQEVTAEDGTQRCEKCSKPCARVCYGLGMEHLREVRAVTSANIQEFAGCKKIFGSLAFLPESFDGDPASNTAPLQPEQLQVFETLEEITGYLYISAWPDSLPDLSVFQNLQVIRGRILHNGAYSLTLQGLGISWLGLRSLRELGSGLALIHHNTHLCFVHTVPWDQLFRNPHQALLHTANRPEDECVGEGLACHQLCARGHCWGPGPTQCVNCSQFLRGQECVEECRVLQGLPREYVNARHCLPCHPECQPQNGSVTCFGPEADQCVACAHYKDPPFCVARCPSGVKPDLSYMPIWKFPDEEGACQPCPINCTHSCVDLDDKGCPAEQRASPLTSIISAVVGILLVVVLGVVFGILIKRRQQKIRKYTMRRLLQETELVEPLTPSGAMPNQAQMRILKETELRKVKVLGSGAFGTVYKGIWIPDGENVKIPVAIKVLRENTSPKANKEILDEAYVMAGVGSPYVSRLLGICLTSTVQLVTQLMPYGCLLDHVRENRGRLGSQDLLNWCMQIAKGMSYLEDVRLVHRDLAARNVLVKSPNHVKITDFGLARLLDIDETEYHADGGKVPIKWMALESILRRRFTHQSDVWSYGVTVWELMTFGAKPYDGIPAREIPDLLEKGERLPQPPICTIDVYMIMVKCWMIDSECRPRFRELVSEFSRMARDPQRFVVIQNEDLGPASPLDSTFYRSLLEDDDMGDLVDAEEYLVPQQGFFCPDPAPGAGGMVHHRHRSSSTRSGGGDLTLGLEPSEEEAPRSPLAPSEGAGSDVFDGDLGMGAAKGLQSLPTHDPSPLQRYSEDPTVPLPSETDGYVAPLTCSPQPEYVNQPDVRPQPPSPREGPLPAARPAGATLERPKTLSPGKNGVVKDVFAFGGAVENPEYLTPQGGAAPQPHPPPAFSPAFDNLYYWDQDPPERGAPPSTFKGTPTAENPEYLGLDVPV
# Sequence of VEGFR-3 (P35916 25-1363, species assumed): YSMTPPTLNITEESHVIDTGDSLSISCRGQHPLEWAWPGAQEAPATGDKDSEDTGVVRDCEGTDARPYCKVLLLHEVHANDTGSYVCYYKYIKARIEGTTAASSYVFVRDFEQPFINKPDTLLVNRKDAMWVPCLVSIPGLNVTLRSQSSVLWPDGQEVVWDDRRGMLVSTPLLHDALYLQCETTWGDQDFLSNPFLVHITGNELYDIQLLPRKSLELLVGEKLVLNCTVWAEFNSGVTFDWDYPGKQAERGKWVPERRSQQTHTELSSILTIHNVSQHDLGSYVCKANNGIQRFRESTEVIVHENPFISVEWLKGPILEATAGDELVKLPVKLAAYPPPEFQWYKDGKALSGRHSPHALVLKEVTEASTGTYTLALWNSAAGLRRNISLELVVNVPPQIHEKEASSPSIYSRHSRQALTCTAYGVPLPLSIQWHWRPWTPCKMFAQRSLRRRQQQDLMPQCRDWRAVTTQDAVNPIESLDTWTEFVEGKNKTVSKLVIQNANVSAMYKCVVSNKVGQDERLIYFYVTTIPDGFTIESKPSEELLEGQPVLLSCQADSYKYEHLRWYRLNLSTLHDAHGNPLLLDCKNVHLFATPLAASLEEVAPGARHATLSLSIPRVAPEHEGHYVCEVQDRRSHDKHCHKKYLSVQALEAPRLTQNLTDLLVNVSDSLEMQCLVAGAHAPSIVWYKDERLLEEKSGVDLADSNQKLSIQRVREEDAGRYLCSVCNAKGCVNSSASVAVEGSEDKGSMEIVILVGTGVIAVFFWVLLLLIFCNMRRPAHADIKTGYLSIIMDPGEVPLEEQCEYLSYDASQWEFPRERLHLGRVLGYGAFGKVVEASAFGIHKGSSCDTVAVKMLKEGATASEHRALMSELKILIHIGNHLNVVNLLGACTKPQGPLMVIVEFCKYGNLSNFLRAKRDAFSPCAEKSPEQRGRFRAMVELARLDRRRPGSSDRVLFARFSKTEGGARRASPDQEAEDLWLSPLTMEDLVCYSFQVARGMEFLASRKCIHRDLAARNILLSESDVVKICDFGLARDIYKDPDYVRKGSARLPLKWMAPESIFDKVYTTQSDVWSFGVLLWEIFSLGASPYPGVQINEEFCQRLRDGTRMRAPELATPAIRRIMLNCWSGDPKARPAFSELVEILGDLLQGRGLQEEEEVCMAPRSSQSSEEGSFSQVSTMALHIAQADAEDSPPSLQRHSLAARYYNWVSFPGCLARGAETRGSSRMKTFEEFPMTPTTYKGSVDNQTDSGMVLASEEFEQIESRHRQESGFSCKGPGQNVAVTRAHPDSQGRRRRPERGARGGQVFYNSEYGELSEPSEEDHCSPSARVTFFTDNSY
# Sequence of InsR (P06213 28-1382, species assumed): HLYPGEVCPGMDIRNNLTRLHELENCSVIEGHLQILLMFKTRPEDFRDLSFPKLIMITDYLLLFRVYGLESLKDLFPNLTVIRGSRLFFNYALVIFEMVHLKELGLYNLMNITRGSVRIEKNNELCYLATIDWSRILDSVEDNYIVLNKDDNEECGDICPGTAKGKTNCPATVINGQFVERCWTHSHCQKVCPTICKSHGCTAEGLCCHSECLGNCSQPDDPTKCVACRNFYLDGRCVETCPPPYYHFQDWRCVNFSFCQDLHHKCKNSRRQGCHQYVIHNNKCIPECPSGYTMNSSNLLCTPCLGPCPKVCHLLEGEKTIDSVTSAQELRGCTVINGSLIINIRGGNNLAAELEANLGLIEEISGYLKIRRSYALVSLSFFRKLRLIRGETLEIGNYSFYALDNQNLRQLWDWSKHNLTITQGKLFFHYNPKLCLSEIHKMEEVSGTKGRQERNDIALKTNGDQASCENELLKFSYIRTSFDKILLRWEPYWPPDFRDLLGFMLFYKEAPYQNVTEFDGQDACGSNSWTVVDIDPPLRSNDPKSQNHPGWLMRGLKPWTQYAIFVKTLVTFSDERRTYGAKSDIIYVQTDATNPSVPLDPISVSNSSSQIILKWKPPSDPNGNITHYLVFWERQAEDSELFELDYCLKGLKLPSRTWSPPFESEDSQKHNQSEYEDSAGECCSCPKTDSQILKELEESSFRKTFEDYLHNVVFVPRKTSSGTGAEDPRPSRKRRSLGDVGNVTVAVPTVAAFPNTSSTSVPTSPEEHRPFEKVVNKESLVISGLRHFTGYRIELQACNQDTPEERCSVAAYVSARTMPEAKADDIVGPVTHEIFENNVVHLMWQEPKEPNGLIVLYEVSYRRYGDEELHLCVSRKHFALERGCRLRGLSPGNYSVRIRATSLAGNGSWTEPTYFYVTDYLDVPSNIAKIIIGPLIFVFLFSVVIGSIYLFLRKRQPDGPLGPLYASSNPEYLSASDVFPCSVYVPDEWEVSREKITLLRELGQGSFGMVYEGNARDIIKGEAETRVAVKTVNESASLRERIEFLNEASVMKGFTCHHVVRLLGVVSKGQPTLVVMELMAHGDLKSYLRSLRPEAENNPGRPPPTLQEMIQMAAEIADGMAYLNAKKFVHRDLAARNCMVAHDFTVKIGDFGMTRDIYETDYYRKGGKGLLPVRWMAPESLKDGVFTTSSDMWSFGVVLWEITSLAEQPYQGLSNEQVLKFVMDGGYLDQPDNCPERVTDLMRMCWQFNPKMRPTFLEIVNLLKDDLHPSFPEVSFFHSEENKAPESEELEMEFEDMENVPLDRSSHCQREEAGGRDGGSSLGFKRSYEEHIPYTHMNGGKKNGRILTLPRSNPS
# Sequence of FGFR-1 (P11362 22-822, species assumed): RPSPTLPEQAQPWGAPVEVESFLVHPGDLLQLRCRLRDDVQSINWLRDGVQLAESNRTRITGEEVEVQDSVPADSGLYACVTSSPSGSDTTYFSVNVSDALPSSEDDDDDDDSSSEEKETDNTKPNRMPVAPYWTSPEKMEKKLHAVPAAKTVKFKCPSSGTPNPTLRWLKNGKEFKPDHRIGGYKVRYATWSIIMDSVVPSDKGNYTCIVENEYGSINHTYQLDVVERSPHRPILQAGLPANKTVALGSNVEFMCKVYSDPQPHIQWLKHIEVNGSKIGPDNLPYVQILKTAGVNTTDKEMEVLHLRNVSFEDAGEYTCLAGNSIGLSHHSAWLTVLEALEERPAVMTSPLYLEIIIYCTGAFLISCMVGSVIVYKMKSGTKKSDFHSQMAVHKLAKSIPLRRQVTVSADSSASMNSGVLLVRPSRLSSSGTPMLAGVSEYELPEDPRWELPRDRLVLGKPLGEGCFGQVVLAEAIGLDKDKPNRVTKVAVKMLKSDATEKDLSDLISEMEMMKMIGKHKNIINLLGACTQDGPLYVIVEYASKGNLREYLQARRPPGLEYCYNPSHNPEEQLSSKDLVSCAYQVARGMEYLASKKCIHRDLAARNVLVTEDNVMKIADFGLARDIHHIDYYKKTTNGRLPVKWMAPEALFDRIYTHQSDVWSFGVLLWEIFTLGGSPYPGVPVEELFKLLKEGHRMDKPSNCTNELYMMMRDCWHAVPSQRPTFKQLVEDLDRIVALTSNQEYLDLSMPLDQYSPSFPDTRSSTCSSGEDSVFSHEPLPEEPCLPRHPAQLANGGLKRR
SMILES,in-vitro inhibitory activity on PDGFR-alpha (PDGFR-alpha),in-vitro inhibitory activity on InsR (InsR),in-vitro inhibitory activity on VEGFR-2 (VEGFR-2),in-vitro inhibitory activity on VEGFR-3 (VEGFR-3),in-vitro inhibitory activity on Her-2 (Her-2),inhibition of the proliferation of HUVEC VEGF stimulated cells [1],in-vitro inhibitory activity on FGFR-1 (FGFR-1),solubility [2],hygroscopicity (hygroscopicity),amorphisation [3]
CN1CCN(C(=O)N(C)c2ccc(N/C(=C3\C(=O)Nc4cc(C(=O)O)ccc43)c3ccccc3)cc2)CC1 [3-Z-[1-(4-(N-((4-methyl-piperazin-1-yl)-carbonyl)-N-methyl-amino)-anilino)-1-phenyl-methylene]-6-carboxy-2-indolinone],inhibits,inhibits,inhibits,inhibits,inhibits,inhibits,inhibits,,,
"CCS(=O)(=O)O.COC(=O)c1ccc2c(c1)NC(=O)/C2=C(\Nc1ccc(N(C)C(=O)CN2CCN(C)CC2)cc1)c1ccccc1 [monoethanesulphonate, 3-Z-[1-(4-(N-((4-methyl-piperazin-1-yl)-methylcarbonyl)-N-methyl-amino)-anilino)-1-phenyl-methylene]-6-methoxycarbonyl-2-indolinone-monoethanesulphonate]",,,,,,,,readily soluble,not hygroscopic,low amorphisation
